# Measured values as given in patent publication US20110294732A1, “ERYTHROPOLETIN COMPLEMENTATION OR REPLACEMENT” (Universite De Strasbourg, priority 2007, published 2011).
# “And” between values parts separate entries of the source, which are not always exact repeats. Equal entries are not always repeated. “Also recorded” adds a separate entry of the source.
# Legend:
# [1] = Blood counts of mice after oral ingestion; type: in vivo; conditions: single mouse, oral in water for 4 days; day 0 count 8.9-11.8
# circulating RBCs = test: P50 shift of circulating RBCs after ip injection; type: in vivo, C57B1/6 mice; conditions: for P50 Shift %, 2 h, Mean +/- SD / P50 Shift %, 24 h, Mean +/- SD / P50 Shift %, 2 h / P50 Shift %, 24 h: ip; for P50 Shift %, 2 h, Mean +/- SD / P50 Shift %, 24 h, Mean +/- SD: 5 animals; for P50 Shift %, 2 h / P50 Shift %, 24 h: single animal
# Experimental: (§1) Blood from C57B1/6 mice collected 2 hrs and 1 day after injection of 45, 60, 120 and 150 mM solutions of ITPP was measured for P50-shifts as reported. […] No animal died or seemed to suffer from the compound.
# [2] = Tolerability of ITPP injection in mice; type: in vivo, C57B1/6 mice
# Experimental: as §1
# [3] = Hematocrit after IP injection; type: in vivo; conditions: 6 days after IP injection of 200 μl of a 60 mM solution; 40% on day 0
# Experimental: It appears, based upon the preliminary data reported, that an inverse relationship exists between the number of RBCs and shift of their P50 value (see FIG. 1). The basal value of the RBC count is restored, once ΔP50 becomes 0%, 12 days after ingestion of ITPP. The hematocrit drops from 40% on day 0 (before ITPP administration) to 32%, 6 days after IP injection of 200 μl of a 60 mM ITPP solution.
# [4] = Blood counts of piglets after intravenous injection; type: in vivo; conditions: iv 1 g/kg
# Source text: Blood from 2 piglets that received ITPP (1 g/kg body weight) was collected before injection, 2 hrs after, and daily over a period of 14 days after injection, in order to assess any differences in the blood counts of treated and non-treated piglets.
# Blood was taken from the heart of the dead animals for determination of blood counts as well as the amount of sodium, potassium and calcium in the sera. All numbers of blood cells (hematocrit, white blood cells etc.) were halved. The amount of potassium and calcium was normal, while sodium was doubled (before injection: 120-140 mmol/L; after injection: 245 mmol/L). Apparently, the large amount of sodium in that form of ITPP (6 Na^+/molecule) caused the death of the animals. It appears that up to 1 g ITPP per kg body weight can be injected intravenously, (if injected slowly) without harmful effects for the animals. […] A second piglet was also injected with ITPP at the 1 g/kg concentration, after 2 piglets had died after iv injection of 1.2 g ITPP (or even more) per kg body weight. […] Starting with day 3 after injection of the allosteric effector, the number of reticulocytes increased by about 3% for a period of 14 days.
# Effort capacity test = type: in vivo, normal wild-type mice; conditions: normal animals, maximum
# Source text: The effort capacity of normal animals may be enhanced by up to 100% by ITPP administration, since more oxygen can be delivered to the working muscle.
# whole blood = test: In vitro P50 of whole blood after incubation with effector, pig; type: cell-based; conditions: 60 mM
# Experimental: For the in vitro experiments, ITPP was dissolved in deionized water, pH was adjusted to pH 7 and, for incubation with whole blood, the osmolarity of the ITPP solutions was adjusted with glucose to 270-297 mOsM. Mixtures of hemoglobin and ITPP were measured with a HEMOX analyzer (PD Marketing, London) immediately after mixing. Red blood cells were incubated with ITPP for 1 hour at 37° C. Following incubation, the cells were washed 3 times with Bis-Tris-buffer (pH=7.0) and then used for P50 measurement.
# ITPP was tested along with a cholesteroyl derivative (here designated as kf96) (both at 60 mM) as effectors for P50 shifts in whole blood of three species: human, mouse and pig. As usual, pHs for the compound-solutions were adjusted to ca. 7.0, osmolarities for both solutions were determined (325-373 mOsM) prior to treatment with the effectors, and whole blood volumes at 1:1 ratios were incubated.
# RBCs = test: Lysis of RBCs after in vitro incubation with effector; type: cell-based, human, mouse and pig
compound,measurement,setting,value
"O=P1(O)OC2C3OP(=O)(O)OP(=O)(O)OC3C3OP(=O)(O)OP(=O)(O)OC3C2OP(=O)(O)O1 (centres unmarked) [ITPP, inositol-tripyrophosphate]",RBC × 10^6/mm^3,[1],9.35 10^6/mm^3 and 8.60 10^6/mm^3 and 8.95 10^6/mm^3 (2×) and 8.88 10^6/mm^3 and 8.70 10^6/mm^3 and 8.73 10^6/mm^3 and 7.65 10^6/mm^3 and 7.80 10^6/mm^3
same,time at which the P50 shift appears after inoculation,circulating RBCs; ip inoculation,2 h
same,"P50 Shift %, 2 h, Mean +/- SD",circulating RBCs; 45 mM,11.8 +/− 1.16%
same,"P50 Shift %, 24 h, Mean +/- SD",circulating RBCs; 45 mM,13.6 +/− 1.02%
same,"P50 Shift %, 2 h",circulating RBCs; 45 mM,10% and 13% (2×) and 12% and 11%
same,"P50 Shift %, 24 h",circulating RBCs; 45 mM,8%
same,"P50 Shift %, 2 h, Mean +/- SD",circulating RBCs; 60 mM,16.9 +/− 3.48%
same,"P50 Shift %, 24 h, Mean +/- SD",circulating RBCs; 60 mM,17.2 +/− 2.1%
same,"P50 Shift %, 2 h",circulating RBCs; 60 mM,12% and 14% and 17% and 21% and 20.5%
same,"P50 Shift %, 24 h",circulating RBCs; 60 mM,14% and 16% and 17% and 20% and 19%
same,"P50 Shift %, 2 h, Mean +/- SD",circulating RBCs; 120 mM,26.0 +/− 2.28%
same,"P50 Shift %, 24 h, Mean +/- SD",circulating RBCs; 120 mM,24.8 +/− 2.7%
same,"P50 Shift %, 2 h",circulating RBCs; 120 mM,28% and 29% and 24% and 26% and 23%
same,"P50 Shift %, 24 h",circulating RBCs; 120 mM,28% (2×) and 22% (2×) and 24%
same,"P50 Shift %, 2 h, Mean +/- SD",circulating RBCs; 150 mM,27.0 +/− 1.78%
same,"P50 Shift %, 24 h, Mean +/- SD",circulating RBCs; 150 mM,25.8 +/− 2.78%
same,"P50 Shift %, 2 h",circulating RBCs; 150 mM,26% (2×) and 28% and 30% and 25%
same,"P50 Shift %, 24 h",circulating RBCs; 150 mM,25% and 26% and 31% and 24% and 23%
same,tolerability,"[2]; ip, concentrations up to 150 mM, no animal died",well tolerated
same,tolerability,"[2]; mice, concentration of 120 mM",well tolerated
same,hematocrit,[3],32%
same,number of other cells such as white blood cells,[4],No major differences
same,"reticulocytes, increasing numbers","[4]; 5-14 days after injection, day 14",up to 3.0%
same,reticulocyte population after decrease,"[4]; first 3 days (24 to 72 hrs) after injection, from 1.4% / 1.5%",0.5%
same,hematocrit and number of RBCs,[4]; first days after injection,slight decrease; also recorded: decrease in hematocrit was observed
same,pathological changes of the blood counts,[4]; injected slowly,did not show any pathological changes
same,increase of the number of reticulocytes,"[4]; starting with day 3, for a period of 14 days",about 3%
same,enhancement of the effort capacity,Effort capacity test,up to 100%
same,"P50 increase, % (ITPP)",whole blood; pig whole blood,40%
same,P50 mm Hg effector ITPP,"whole blood; pig whole blood, control 32.2",45.2 mm Hg
same,"right shift in the Hb-O2 dissociation curve, strongest shift","whole blood; summary over human, pig and mouse whole blood",up to 40%
same,lysis of RBCs,RBCs,never occurred; also recorded: no lysis of RBCs was observed
